From ChEMBL document CHEMBL1201862, “PubChem BioAssay data set” (2004)
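Assay format: 96-well plates, 48-hour exposure. GI50: concentration for 50% inhibition of growth.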 Calls of active or inactive are those of the source. No stated cut-off is given here; in the data, active = GI50 up to about 1.1 µM and inactive = higher.

Tests used:
Test in all cases: growth of human tumour cells (NCI), 48 h
[1] = system: DLD-1
[2] = system: DMS-114
[3] = system: DMS-273
[4] = system: HOP-18
[5] = system: KM-20L2
[6] = system: LXFL 529
[7] = system: SNB-78
[8] = system: XF498
[9] = system: RXF 631

Measured: GI50

COc1cc2c(c(OC)c1OC)C(=O)NCCC2
inactive: [1] > 100 µM | [2] > 100 µM | [3] > 100 µM | [4] > 100 µM | [5] > 100 µM | [6] > 100 µM | [7] > 100 µM | [8] > 100 µM

CCCCOC(=O)NC(=O)c1cn(C2CCCCC2)c(=O)[nH]c1=O
inactive: [1] 36.9 µM | [2] 39.8 µM | [3] > 100 µM | [4] 19.4 µM | [5] 76 µM | [6] 29 µM | [7] 36.6 µM | [8] 54.7 µM

COc1ccc(OC2(c3cc(OC)ccc3OC)OC(=O)c3ccccc32)cc1 (stereo not drawn)
inactive: [1] > 100 µM | [2] > 100 µM | [3] > 100 µM | [4] > 100 µM | [5] > 100 µM | [6] > 100 µM | [9] > 100 µM | [7] > 100 µM

CCOC(OC1=C(C#N)CCCC1)C(C)[Se]c1ccccc1 (stereo not drawn)
inactive: [1] 36.2 µM | [2] 4.29 µM | [3] 16.3 µM | [4] 38.5 µM | [5] 62.7 µM | [6] 22.7 µM | [7] > 100 µM | [8] 23.6 µM

Cc1ccc(S(=O)(=O)OCC23CCC(CC2)C2CC23)cc1 (stereo not drawn)
inactive: [1] 74.1 µM | [2] 30.5 µM | [3] 30.1 µM | [4] > 100 µM | [5] 56.5 µM | [6] 68.2 µM | [9] 73.5 µM

O=C1C=CC(=O)c2cc(Sc3ccccc3)c(=O)ccc21
inactive: [1] 13.6 µM | [2] 18.8 µM | [3] 18.9 µM | [4] 17.9 µM | [5] 20.2 µM | [6] 7.43 µM | [9] 21.7 µM | [7] 20 µM

O=C(O)C1=C(C(=O)Nc2ccc(NC(=O)C3=C(C(=O)O)C4C=CC3C4)cc2)C2C=CC1C2
inactive: [1] > 100 µM | [2] > 100 µM | [3] > 100 µM | [4] > 100 µM | [5] > 100 µM | [6] > 100 µM | [7] > 100 µM | [8] > 100 µM

CC1=C(C(=O)CC(=O)C(=O)NC2C3CC4CC(C3)CC2C4)Sc2ccccc2N1 (stereo not drawn)
inactive: [1] > 100 µM | [2] > 31.6 µM | [3] > 100 µM | [4] 86.1 µM | [5] > 100 µM | [6] > 100 µM | [7] > 100 µM | [8] > 100 µM

O=C(COC(=O)c1cccc2c(=O)c3ccccc3[nH]c12)Nc1ccccc1
inactive: [1] 65 µM | [2] 22.3 µM | [3] 58.1 µM | [4] > 100 µM | [5] 79.6 µM | [6] 28.6 µM | [9] 28.5 µM | [8] 32.1 µM

Cc1ccc(NC(=O)CC2C(=O)Nc3ccccc3[S+]2[O-])c(C)c1 (stereo not drawn)
inactive: [1] 15.3 µM | [2] 7.94 µM | [3] 6.15 µM | [4] 28.1 µM | [5] 12.3 µM | [6] 16.5 µM | [9] 17.2 µM | [7] 16.4 µM | [8] 10.4 µM

COC(=O)C(CCCN1C(=O)c2ccccc2C1=O)C(=O)OC
inactive: [1] > 100 µM | [2] > 100 µM | [3] > 100 µM | [4] > 100 µM | [5] > 100 µM | [6] > 100 µM | [7] > 100 µM | [8] > 100 µM

COc1cccc(NC(=O)/C(Cc2nc3ccccc3nc2C)=N/NC(=O)C[n+]2ccccc2)c1
inactive: [1] > 100 µM | [2] > 100 µM | [3] 63.4 µM | [4] > 100 µM | [5] > 100 µM | [6] > 100 µM | [7] > 100 µM | [8] > 100 µM

C/C(CC(=O)Nc1ccc(Cl)c(Cl)c1)=N/NC(=O)C[N+](C)(C)C
inactive: [1] 29.2 µM | [2] 21.5 µM | [3] 38.8 µM | [4] > 100 µM | [5] > 100 µM | [6] > 100 µM | [7] > 100 µM | [8] > 100 µM

CCN(CC)C(=O)CC12CCCCC1=Nc1ccccc12 (stereo not drawn)
inactive: [1] > 100 µM | [3] > 100 µM | [4] > 100 µM | [5] > 100 µM | [6] > 100 µM | [9] > 100 µM | [7] > 100 µM | [8] > 100 µM

Cn1ccnc1Cn1cc(-c2cccc(-c3cn[nH]c3)c2)cn1
inactive: [1] > 100 µM | [2] > 100 µM | [3] > 100 µM | [5] > 100 µM | [6] 99.1 µM | [9] > 100 µM | [7] > 100 µM | [8] > 100 µM

CC(C)=CC(=O)N(C)C1C2CN3CCC(O2)C13 (stereo not drawn)
inactive: [1] > 100 µM | [2] > 100 µM | [3] > 100 µM | [4] > 100 µM | [5] > 100 µM | [6] > 100 µM | [7] > 100 µM | [8] > 100 µM
